Where two headings read alike, the source gives them in different places.

In US9789096B2, “Methods and compositions for selective and targeted cancer therapy” (Board of Regents of the University of Texas System, priority 2013, dated 2017) one finds IC50 and AC50 data, which are given here for 20 compounds.

Common to all, as to type: cell-based, human
For one test, the system named is H1819. Nature of the test: Cell viability dose-response, H1819. As to conditions: for AC50: NCI-H1819, Table 8, 12-point dose-response starting at 50 micromolar. A digest of the protocol: (§1)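 Viability read as total ATP (Cell Titer Glo) following 4 days' compound exposure, with IC50 derived from dose-response curves. Duplicate 12-point series, top concentration 50 micromolar with 3-fold steps, on cells seeded at 15% confluence in RPMI-1640, 5% FBS, 2 mM L-glutamine.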

The next test relates to HBEC30KT. Nature of the test: Cell viability (ATP, Cell Titer Glo, 4 days), HBEC30KT. As to conditions: Homo sapiens. As for the experimental part: (§2) FIG. 6A. […] Cell viability is plotted vs. compound concentration. Compound was added to cells plated at 15% confluence in 96-well plates in RPMI-1640 media supplemented with 5% Fetal Bovine Serum and 2 mM L-Glutamine. After 4 days of incubation, ATP levels were measured using Cell Titer Glo (Promega). Data are presented as the average of 2 replicates ±SEM.
(§3) Selectivity may be measured by the half maximal inhibitory concentration (IC50), which, as used herein, is a measure of the effectiveness of a compound in killing cells. This quantitative measure indicates how much of a particular compound is needed to kill a particular cell population by half (e.g., as indicated by the amount of ATP). […] The IC50 can be determined by constructing a dose-response curve. The lower the IC50, the higher the potency, and the greater the difference between IC50 values for different cell lines (e.g., sensitive lines vs. insensitive lines, and sensitive lines vs. normal lines) the greater the selectivity. […]

The subject of a further test is H2122. Nature of the test: Cell viability dose-response, H2122. As to conditions: for AC50: NCI-H2122, Table 8, 12-point dose-response starting at 50 micromolar. In a few lines: as §1
A further test concerns H2009. Nature of the test: Cell viability dose-response, H2009. As to conditions: Homo sapiens, NCI-H2009; Tables 3 and 4; read-out: IC50 (uM) vs indicated non-small cell lung cancer cell line H2009. A digest of the protocol: (§4)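 Compound is titrated onto cells seeded at 15% confluence and incubated four days in 5% FBS RPMI-1640 medium. ATP-based luminescence gives viability; duplicate means ±SEM define the dose-response curve.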

The next test relates to H2073. Nature of the test: Cell viability dose-response, H2073. To be noted: for IC50: read-out: IC50 (uM) vs indicated non-small cell lung cancer cell line H2073; for AC50: NCI-H2073, Table 8, 12-point dose-response starting at 50 micromolar. As to the method:
as §2, §3
With this information, we synthesized and tested a series of small molecules derived in conception from the oxalamide and chromone scaffold including N-acyl ureas, as shown in Tables 6-8. Each compound was tested in a 12-point dose-response study starting at 50 micromolar and decreasing in 3-fold increments to sub-nanomolar concentrations, in duplicate. Additionally, one or more additional cell line was tested in the same way.

A further test relates to HCC44. Nature of the test: Cell viability dose-response, HCC44. As to conditions: Homo sapiens, HCC44, Table 8; 12-point dose-response starting at 50 micromolar. In a few lines:
as §4

[1] abbreviates: Homo sapiens, NCI-H1819, Tables 3 and 4, read-out: IC50 (uM) vs indicated non-small cell lung cancer cell line H1819.
Where [2] appears, read: Tables 3 and 4, read-out: HBEC30KT IC50.
The mark [3] stands for this setting: Homo sapiens, NCI-H2122, Tables 3 and 4, read-out: IC50 (uM) vs indicated non-small cell lung cancer cell line H2122.
The mark [4] stands for this setting: Homo sapiens, NCI-H1819, 12-point dose-response starting at 50 micromolar, 3-fold increments, in duplicate, read-out: toxicity data, H1819.
[5] abbreviates: Homo sapiens, NCI-H2122, 12-point dose-response starting at 50 micromolar, 3-fold increments, in duplicate, read-out: toxicity data, H2122.
The mark [6] stands for this setting: 12-point dose-response starting at 50 micromolar, 3-fold increments, in duplicate, read-out: toxicity data, HBEC30KT.
Where [7] appears, read: Homo sapiens, NCI-H2073, Tables 3 and 4.

In the case of `COc1ccc2nc(NC(=O)CCc3ccccc3)sc2c1` [SW202751], the IC50 in the test on H1819 (setting [1]) turned out to be 995 µM; with HBEC30KT (setting [2]), 376 µM.
On to `O=C(Nc1ccc([N+](=O)[O-])cc1F)c1sc2ccccc2c1Cl` [SW202552], for which the IC50 is 122 µM in the test with H2122 (setting [3]) and 4950 µM in the test on HBEC30KT (setting [2]).
On to `COc1ccc(CNC(=O)C(=O)NCc2ccc(OC)cc2)cc1` [SW207019-1], for which the values for the IC50 with H1819 (setting [4]), in the test with H2122 (setting [5]) and in the test with HBEC30KT (setting [6]) were at least 49.5 µM, at least 49.5 µM and 49.5 µM, respectively.
In the case of `COc1ccc2nc(NS(=O)(=O)CC34CCC(CC3=O)C4(C)C)sc2c1` (stereo not shown) [SW202752], the IC50 with H1819 (setting [1]) was 166 µM; with H2009 it was 4950 µM; in the test with H2073 (setting [7]), 110 µM.
With `COc1ccc(CCNC(=O)C(=O)Nc2ccc(C)c(Br)c2)cc1` [SW207014-1], the IC50 with H1819 (setting [4]) is at least 49.5 µM; in the test on H2122 (setting [5]) it was 0.89 µM; in the test on HBEC30KT (setting [6]) it was 49.5 µM.
The corresponding values for `COc1ccc(CCNC(=O)C(=O)Nc2ccc(C)c(Cl)c2)cc1` [SW207020-1] are at least 49.5 µM, 0.602 µM and 49.5 µM.
On the same counts, the results for `COc1ccc(CCNC(=O)C(=O)Nc2cc(C(F)(F)F)c(Br)c(C(F)(F)F)c2)cc1` [SW207012-1] are at least 49.5 µM, 11.8 µM and 18 µM.
On the same counts, the results for `O=C(NCCc1ccc(Cl)cc1)C(=O)Nc1ccc(Cl)cc1` [SW207008-1] are at least 49.5 µM, at least 49.5 µM and 49.5 µM.
Consider `COc1ccc(CCNC(=O)C(=O)NCc2ccc(OC)cc2)cc1` [SW207018-1], for which the IC50 in the test on H1819 (setting [4]) was at least 49.5 µM; with H2122 (setting [5]), at least 49.5 µM; with HBEC30KT (setting [6]) it was 49.5 µM.
`COc1ccc(CCNC(=O)C(=O)Nc2cccc(C#N)c2)cc1` [SW207021-1]: the values for the IC50 with H1819 (setting [4]), in the test on H2122 (setting [5]) and in the test with HBEC30KT (setting [6]) were at least 49.5 µM, 0.407 µM and 49.5 µM, respectively.
Consider `COc1ccc2nc(NS(=O)(=O)c3ccc(Br)cc3)sc2c1` [SW166942], for which the IC50 in the test on H1819 (setting [1]) came out at 46.7 µM; with H2009, 78.6 µM; in the test with H2122 (setting [3]) it was 59.6 µM; in the test with H2073 (setting [7]), 47.6 µM.
On the same counts, the results for `COc1ccc2nc(NS(=O)(=O)c3ccc(C(F)(F)F)cc3)sc2c1` [SW202746] are 36 µM, 42.7 µM, 46.1 µM and 38 µM.
Turning to `C#CCOc1ccc(C(=O)c2ccc(C(=O)Nc3nc4ccc(OC)cc4s3)cc2)cc1` [SW209049-2], the IC50 in the test with H1819 (Tables 3 and 4, read-out: IC50 (uM) vs indicated non-small cell lung cancer cell line H1819) was determined as 21 µM; in the test on H2122 (Tables 3 and 4, read-out: IC50 (uM) vs indicated non-small cell lung cancer cell line H2122) it was 0.131 µM; in the test on H2073 (Tables 3 and 4), 18 µM.
Turning to `O=c1c(Oc2ccccc2F)coc2cc(OCc3cnn(-c4ccccc4)c3)ccc12` [SW043139], the AC50 was 50 µM in the test with H1819 (Homo sapiens), 166 nM in the test with H2122 (Homo sapiens), 50 µM with HCC44 and 50 µM with H2073 (Homo sapiens).
Turning to `C#CCOc1cccc(-c2coc3cc(OCc4cnn(-c5ccccc5)c4)ccc3c2=O)c1` [SW 209087-1], the AC50 was determined as 49.5 µM with H1819 (Homo sapiens), 106 nM in the test with H2122 (Homo sapiens) and 49.5 µM with H2073 (Homo sapiens).
Consider `C#CCc1coc2cc(OCc3cnn(-c4ccccc4)c3)ccc2c1=O` [SW209021-1], for which the AC50 in the test with H1819 (Homo sapiens) turned out to be 49.5 µM; in the test on H2122 (Homo sapiens), 846 nM; in the test on H2073 (Homo sapiens), 49.5 µM.
Regarding `O=C1/C(=C/c2ccccc2C(F)(F)F)COc2cc(OCc3cnn(-c4ccccc4)c3)ccc21` [SW209195-1], the AC50 was found to be 49.5 µM in the test on H1819 (Homo sapiens), 85 nM in the test on H2122 (Homo sapiens) and 0.39 µM in the test with H2073 (Homo sapiens).
As for `COC(=O)c1ccc2nc(NC(=O)c3ccc(C(=O)c4ccccc4)cc3)sc2c1` [SW211561-1], the IC50 with H1819 (setting [1]) was found to be 16.5 µM; in the test with H2122 (setting [3]), 7.75 µM; in the test with H2073 (setting [7]), 29.1 µM.
Regarding `Cc1ccccc1/C=C1\COc2cc(OCc3cnn(-c4ccccc4)c3)ccc2C1=O` [SW209200-1], the AC50 is 49.5 µM with H1819 (Homo sapiens), 874 nM in the test with H2122 (Homo sapiens) and 49.5 µM in the test on H2073 (Homo sapiens).
As for `O=C(Nc1nc2ccccc2s1)c1cccc([N+](=O)[O-])c1` [SW209205-1], the IC50 was 0.468 µM with H1819 (setting [1]), 0.397 µM in the test on H2122 (setting [3]) and 49.5 µM in the test with H2073 (setting [7]).
